According to patent publication US20080096251A1, “Invertebrate-Derived Gonadotropic Hormone and its Synthesis” (priority 2004, published 2008):

Tests used:
[1] = tested on: ovary of Asterina pectinifera; test: gonad-stimulating activity: spawning of matured eggs from ovary fragments in a two-fold dilution series; type: cell-based; details: for EC50(nM) gonad-stimulating activity, Asterina pectinifera: Asterina pectinifera ovary piece in seawater, 25° C., spawning after 1 hr; for gonad-stimulating activity (in words): summary of Table 1, Asterina pectinifera
Procedure: (§1) Gonad-stimulating activity could be measured by the following methods:
(§2) Those individuals, whose eggs are highly sensitive to oocyte maturation-inducing hormone, are selected from matured invertebrate female individuals and are separated as test individuals.
(§3) Ovaries are excised from test individuals into seawater and are cut in small pieces. The assay plate for multiple test samples is filled with 200 μl seawater. Two μl of a test sample for gonad-stimulating activity is diluted to 200 folds by mixing with 398 μl seawater. The half portion (200 μl) is diluted to two fold by mixing with 200 μl seawater in the assay plate. The half portion (200 μl) is further diluted to two fold by mixing with 200 μl seawater in the assay plate. Repeating of the procedure results in preparation of two fold dilution series from 200-folds dilution to 102,400-folds dilution. A small piece of ovary is added to each dilution sample and is allowed to rest at 25° C. The gonad-stimulating activity is evaluated by spawning of matured eggs from a contracted small piece of ovary after 1 hr. The relative gonad-stimulating activity is assessed by the degree of dilution.
(§4) In the following Examples, gonad-stimulating activity are examined by the following way:
(§5) Two to three individuals bearing oocyte with high sensitivity of a gonadotropic hormone (1-methyladenine) are selected from several tens of female individuals of matured Asterina pectinifera (or Asterias amurensis) and are separated as test individuals.
(§6) The selection was performed in the following way:
(§7) The oocyte maturation-inducing hormone was diluted to 6 different concentrations, i.e. 10^−6 M, 3×10^−7 M, 10^−7 M, 3×10^−8 M, 10^−8 M, and 3×10^−9 M, in seawater, wherein small fragment of ovary was added to the different concentrations of maturation-inducing hormone and was allowed to stand for 60 min at room temperature. Maturation of oocyte was examined under microscope after 60 min to see whether the structure of nuclei in an oocyte was degraded to prepare for next fertilization. The concentration of the oocyte maturation-inducing hormone at maturation was checked and those individuals, which were matured at less than 10^−7 M, were used as test individuals.
as §3, with “(with tufted morphology) were removed” for “are excised”, “were” for “are”, “into about 5 mm fragments.” for “in small pieces.”, “hr (FIG. 1).” for “hr.”

[2] = tested on: ovary of Asterias amurensis; test: as above; type: cell-based; details: Asterias amurensis ovary piece in seawater, 25° C., spawning after 1 hr
Procedure: as §1, §2, §3, §4, §5, §6, §7
as §3, with “(with tufted morphology) were removed” for “are excised”, “were” for “are”, “into about 5 mm fragments.” for “in small pieces.”, “hr (FIG. 1).” for “hr.”

Row | Sequence | EC50(nM) gonad-stimulating activity, Asterina pectinifera [1] | gonad-stimulating activity (in words) [1] | EC50(nM) gonad-stimulating activity, Asterias amurensis [2]
1 | SEYSGIASYCCLHGCTPSELSVVC [GSS-B] | No activity | did not show gonad-stimulating activity | No activity
2 | EKYCDDDFHMAVFRTCAVS [GSS-A, synthesized subunit peptide, 19 amino acid residues, molecular weight 2236] | No activity | did not show gonad-stimulating activity | No activity
